This test concerns the target human σ2 receptor (TMEM97) (Homo sapiens, UniProt Q5BJF2). Nature of the test: biochemical. The conditions noted are these: read-out: % of control remaining. The format is Expi293 membranes.

human σ2 receptor (TMEM97), sequence (Q5BJF2 whole entry): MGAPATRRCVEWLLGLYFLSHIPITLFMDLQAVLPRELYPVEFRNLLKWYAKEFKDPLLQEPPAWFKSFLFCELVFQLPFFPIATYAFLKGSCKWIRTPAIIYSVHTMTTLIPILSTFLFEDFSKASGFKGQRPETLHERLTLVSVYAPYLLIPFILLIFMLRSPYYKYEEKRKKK

In the case of `CC(C)NC1CCN(C(=O)Cn2cnc(C(N)=O)n2)CC1` [ZINC000996610565], the remaining activity at 1 µM was 114%.

Consider `Cc1n[nH]cc1C(=O)NC1CN(C(=O)[C@H]2C[C@@H]3CCCCN3C2)C1` [ZINC000997292482], for which the remaining activity at 1 µM stood at 87.9%.

With `Cc1cnoc1C(=O)NC1CN(C(=O)[C@@H]2CCN(C)S2(=O)=O)C1` [ZINC000998978244], the remaining activity at 1 µM amounted to 98.3%.

Consider `O=C(NCC1CN(C(=O)[C@H]2CC[C@H]3CCCCN32)C1)c1cnccn1` [ZINC001000730978], for which the remaining activity at 1 µM was determined as 81.3%.

As to `O=C(NCC1CCN([C@H]2CCNC2=O)CC1)c1ccn(C(F)F)n1` [ZINC001001445660], the remaining activity at 1 µM was found to be 92.1%.

On to `Cc1cccc(F)c1C(=O)NCC1CCN(CCn2cncn2)CC1` [ZINC001002178741], for which the remaining activity at 1 µM is 109%.

Take `CCN1CC[C@@H](N2CCC(NC(=O)c3cncnc3C)CC2)C1=O` [ZINC001002391793]: the remaining activity at 1 µM worked out at 90.1%.

Take `CCc1nnsc1C(=O)NCC1CN(C(=O)[C@H]2CCCN2C)C1` [ZINC001003018745]: the remaining activity at 1 µM amounted to 85.7%.

For `O=C(Cn1cnnn1)N1CC(CNC(=O)C23CCCN2CCC3)C1` [ZINC001003297636], the remaining activity at 1 µM is 72.3%.

As for `CC[C@@H](C(N)=O)N1CCC(NC(=O)[C@H]2Cc3ccc(Cl)cc32)CC1` [ZINC001004070100], the remaining activity at 1 µM was 85.5%.

For `C[C@@H](NC(=O)c1cnnn1C)C1CN(C(=O)C23CCCN2CCC3)C1` [ZINC001006004942], the remaining activity at 1 µM turned out to be 126%.

For the compound `O=C1NCC[C@@H]1C(=O)N[C@H]1CCN(CCn2cc(Cl)cn2)C1` [ZINC001015510639], the remaining activity at 1 µM amounted to 87.4%.

On to `C[C@@]1(C(=O)N[C@H]2CC23CCN(CC(=O)NC2CC2)CC3)CCNC1=O` [ZINC001016825715], for which the remaining activity at 1 µM is 106%.

For `Cn1ccc(N2CC[C@@H](N[C@H]3CCN(C(=O)CC4CCC4)C3)C2=O)n1` [ZINC001018665695], the remaining activity at 1 µM stood at 120%.

In the case of `Cc1cc(C(=O)N2CC[C@H](NCc3cccc(Cl)c3F)C2)ncn1` [ZINC001018723708], the remaining activity at 1 µM is 101%.

Take `O=C([C@H]1Cc2ccccc21)N1CC[C@H](NCc2ccncc2Cl)C1` [ZINC001019309159]: the remaining activity at 1 µM came out at 99.6%.

On to `Cc1ccc(C(=O)NC[C@H]2CN(C(=O)[C@@H]3CCN(C)C3)CCCO2)o1` [ZINC001019525589], for which the remaining activity at 1 µM amounted to 85%.

Turning to `Cc1nc(CN[C@H]2C[C@H](NC(=O)Cn3ncn(C)c3=O)C2)cs1` [ZINC001020327691], the remaining activity at 1 µM was 102%.

With `Cc1ccccc1CN[C@H]1C[C@H](NC(=O)c2cn(C)c(=O)nc2O)C1` [ZINC001021041334], the remaining activity at 1 µM was 86.2%.

`Cn1cc(CN[C@H]2C[C@H](NC(=O)c3cccc(C(N)=O)n3)C2)cn1` [ZINC001021109191]: the remaining activity at 1 µM was 106%.

On to `C[C@@H](C(N)=O)N1CCC[C@H](CNC(=O)c2nn(C)c3c2CCCC3)C1` [ZINC001023604137], for which the remaining activity at 1 µM is 89.3%.

For `Cn1nccc1C(=O)N1C[C@@H](O)[C@H](NC(=O)c2c[nH]nc2C2CC2)C1` [ZINC001025444165], the remaining activity at 1 µM worked out at 95.7%.

Regarding `Cc1cc(C(=O)NC[C@@H]2CCN(CC(=O)Nc3cnccn3)C2)on1` [ZINC001028403773], the remaining activity at 1 µM was found to be 109%.

Consider `Cc1nc(O)[nH]c1C(=O)NC[C@H]1CCN([C@H](C)C(=O)NC2CC2)C1` [ZINC001028614115], for which the remaining activity at 1 µM came out at 115%.

Consider `Cc1ccnc2nc(C(=O)NCC3CN(CCCC4CCC4)C3)nn12` [ZINC001032169623], for which the remaining activity at 1 µM is 92.8%.

For `CCN(C(=O)c1cnccn1)[C@@H]1CCN(CC2CCCCCC2)C1` [ZINC001033739722], the remaining activity at 1 µM is 24.6%.

Take `CCN(C(=O)c1ccnc(C2CC2)n1)[C@H]1CCN(CC2CCC2)C1` [ZINC001033973784]: the remaining activity at 1 µM was 43.3%.

Regarding `CCc1ocnc1C(=O)NC[C@H]1CN(C[C@@H](C)CC)CCO1` [ZINC001035320653], the remaining activity at 1 µM came to 119%.

Consider `C[C@@H](O)CN1CC[C@H](C2CCN(C(=O)CN3CCOCC3)CC2)C1` [ZINC001039123057], for which the remaining activity at 1 µM came out at 115%.

As for `COc1ccnc(CN2CCC3(CC2)CCN(C(=O)C(C)C)C3)c1` [ZINC001040612984], the remaining activity at 1 µM is 100%.

For the compound `COCCC(=O)N1CC[C@@](O)(CNC(=O)[C@@H]2CCN(C)C2=O)C1` [ZINC001040614201], the remaining activity at 1 µM turned out to be 117%.

Turning to `O=C(NCC1(O)CN(C(=O)CCn2ccnc2)C1)[C@H]1CC=CCC1` [ZINC001041431730], the remaining activity at 1 µM amounted to 98.6%.

In the case of `O=C([C@@H]1CCCN(CC(F)F)C1)N1CC[C@]2(CCN(CCO)C2)C1` [ZINC001041605786], the remaining activity at 1 µM is 110%.

Turning to `CN1CC[C@@H](C(=O)N2CC[C@@]3(CCN(Cc4nnn(C)n4)C3)C2)C1` [ZINC001041828396], the remaining activity at 1 µM stood at 103%.

Regarding `CN1CCC[C@H]1C(=O)NCC1(O)CN(C(=O)CCc2ncccn2)C1` [ZINC001042098162], the remaining activity at 1 µM was determined as 102%.

For the compound `Cn1nc(C(=O)N2CC(O)(CNC(=O)C3=CCOCC3)C2)ccc1=O` [ZINC001042722400], the remaining activity at 1 µM came to 125%.

On to `CNC(=O)NCC(=O)N1CC(O)(CNC(=O)c2ccc(F)s2)C1` [ZINC001043696212], for which the remaining activity at 1 µM was found to be 84.5%.

With `CN1CCCC[C@@H]1C(=O)NCC1(O)CN(C(=O)CCc2cn[nH]c2)C1` [ZINC001043772717], the remaining activity at 1 µM is 116%.

For `CN(C)c1ccc(C(=O)N2CC(O)(CNC(=O)c3cnn[nH]3)C2)nc1` [ZINC001043817104], the remaining activity at 1 µM was 88.5%.

For the compound `CCC[C@@H]1C[C@H]1C(=O)NCC1(O)CN(C(=O)C2CN(C(C)=O)C2)C1` [ZINC001046261579], the remaining activity at 1 µM worked out at 114%.

Consider `Cc1nc[nH]c1C(=O)N1CC(O)(CNC(=O)CN2CC[C@H](C)C2)C1` [ZINC001046685471], for which the remaining activity at 1 µM came to 101%.

For `C[C@H](C(=O)NCC1(O)CN(C(=O)Cn2ncnn2)C1)C1CCCC1` [ZINC001046914841], the remaining activity at 1 µM was 104%.

For `NC(=O)[C@@H]1CCC[C@@H](C(=O)NCC2(O)CN(C(=O)C3CCC3)C2)C1` [ZINC001046939982], the remaining activity at 1 µM amounted to 110%.

With `CC(C)n1cc(C(=O)N2CC(O)(CNC(=O)c3ccnnc3)C2)nn1` [ZINC001047126822], the remaining activity at 1 µM turned out to be 107%.

On to `Cc1ccc(CN2C[C@@H]3CN(C(=O)c4cccn4C)C[C@@H]3C2)cc1C` [ZINC001048683995], for which the remaining activity at 1 µM came to 61.7%.

Take `Cc1ncc(CNC[C@@H]2CN(C(=O)c3cn(C)cn3)CCO2)cn1` [ZINC001051553588]: the remaining activity at 1 µM worked out at 105%.

As to `O=C(Cn1cnnn1)N[C@H]1CCN(c2ncnc3c2CCC3)C[C@H]1O` [ZINC001051633080], the remaining activity at 1 µM came to 132%.

Take `CCN1CC[C@H](N2CCC[C@@H](NC(=O)c3ccc(O)nn3)CC2)C1=O` [ZINC001052175095]: the remaining activity at 1 µM amounted to 104%.

`COCCn1cc(C(=O)N2C[C@@H](C)[C@@H](NCc3ccccn3)C2)nn1` [ZINC001054647418]: the remaining activity at 1 µM came out at 104%.

For `Cc1cnc(C(=O)N2C[C@H]3CN(C(=O)CN(C)C(C)C)C[C@H]3C2)cn1` [ZINC001055138151], the remaining activity at 1 µM was 103%.

The values are drawn from publication doi:10.1101/2021.04.29.441652v1 (biorxiv, 2021).
